Results from patent publication US8981106B2, “Pyrimidinecarboxamides as CXCR2 modulators” (Syntrix Biosystems, Inc., priority 2009, dated 2015).

molecular target: CXCR2 (Homo sapiens (Human), UniProt P25025); assay: Inhibition of GROα-mediated intracellular calcium release in human neutrophils (FLIPR-3 Ca2+ mobilization); type: cell-based; settings: human neutrophils, 25 nM GROα; read-out: IC50
Procedure: In Tables 1-5, the IC50 or EC50 values were determined using the following assay. This assay measures intracellular calcium release via fluorescence as an indication of CXCR2 receptor activation by the physiologic agonist GROα. The assay is a Ca^2+ mobilization assay that measures changes in intracellular Ca^2+ with a FlexStation II scanning fluorometer using a FLIPR-3 Calcium Assay Kit (Molecular Devices, Sunnyvale, Calif.). The procedure is as follows:
1. Human neutrophils were suspended in HBSS^− (without Ca^2+ and Mg^2+) containing 10 mM HEPES and FLIPR Calcium 3 dye (3.1×10^7 cells in total volume 1.7 mL).
2. […] As controls, 2 μL of DMSO (1% final concentration) were added to other 2 tubes.
3. Cells were incubated for 30 min at 37° C.
4. After dye loading, tubes were centrifuged at 6,000 rpm for 1 min, supernatant was removed and cell pellet was re-suspended in 200 μL of HBSS^+ (with Ca^2+ and Mg^2+) containing 10 mM HEPES.
5. The compound or DMSO (control) was added again at the same concentrations that were used during cell loading.
6. The cell suspension was aliquoted into a 96-well Reading Plate (Corning) in a volume of 90 μL (10^5 cells/well). The Compound Plate contained physiologic agonist (GROα in HBSS^−) or HBSS^− (control).
9. The maximum change in fluorescence, expressed in arbitrary units over baseline (Max-Min) was used to determine the GROα response. […] Therapeutic Activity
Briefly, human neutrophils were suspended in HBSS^− (without Ca^2+ and Mg^2+) containing 10 mM HEPES and FLIPR Calcium 3 dye (3.1×10^7 cells in total volume 1.7 mL). […] As controls, 2 μL of DMSO (1% final concentration) were added to 2 other tubes. Cells were incubated for 30 min at 37° C. After dye loading, tubes were centrifuged at 6,000 rpm for 1 min, supernatant was removed and the cell pellet was re-suspended in 200 μL of HBSS^+ (with Ca^2+ and Mg^2+) containing 10 mM HEPES. The test compound or DMSO (control) was added again at the same concentrations that were used during cell loading. The cell suspension was aliquoted into a 96-well Reading Plate (Corning) in a volume of 90 μL (10^5 cells/well). The Compound Plate contained agonist (GROα in HBSS^−) or HBSS^− (control).
The maximum change in fluorescence, expressed in arbitrary units over baseline (Max-Min), was used to determine the GROα response.

Chain of CXCR2 (P25025 whole entry): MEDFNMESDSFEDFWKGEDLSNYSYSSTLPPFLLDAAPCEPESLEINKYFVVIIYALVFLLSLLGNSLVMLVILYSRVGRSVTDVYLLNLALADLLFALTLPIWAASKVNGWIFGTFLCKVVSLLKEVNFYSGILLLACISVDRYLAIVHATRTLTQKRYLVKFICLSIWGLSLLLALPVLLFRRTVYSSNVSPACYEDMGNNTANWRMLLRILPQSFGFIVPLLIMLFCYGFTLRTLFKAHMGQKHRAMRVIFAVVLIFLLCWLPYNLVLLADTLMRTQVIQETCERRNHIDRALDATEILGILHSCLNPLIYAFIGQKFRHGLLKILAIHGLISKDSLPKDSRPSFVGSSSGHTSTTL

Q: `O=C(Nc1ccc(F)cc1)c1ccc(SCc2cc(F)ccc2B(O)O)nc1` [Compound 3] was tested. Which IC50 did it give?
A: 52 ± 5 nM

Q: Which IC50 does the source give for `COc1cc(CSc2ccc(C(=O)Nc3ccc(F)cc3)cn2)c(B(O)O)cc1OC` [Compound 5, 6-(2-boronic acid-4,5-di-methoxy-benzylsulfanyl)-N-(4-fluoro-phenyl)-nicotinamide] here?
A: > 10000 nM

Q: Which IC50 does the source give for `O=C(Nc1ccc(F)cc1)c1ccc(SCc2cc3c(cc2B(O)O)OCO3)nc1` [Compound 6] here?
A: > 10000 nM

Q: How did the IC50 turn out when `O=C(Nc1ccc(F)cc1)c1ccc(SCc2cccc(B(O)O)c2)nc1` [Compound 7] was run?
A: 1970 ± 750 nM

Q: `O=C(Nc1ccc(F)cc1)c1ccc(SCc2ccc(B(O)O)cc2)nc1` [Compound 8] was tested. Which IC50 did it give?
A: 899 ± 150 nM

Q: `O=C(Nc1ccc(F)cc1)c1ccc(SCCc2ccccc2B(O)O)nc1` [Compound 9] was tested. Which IC50 did it give?
A: 387 ± 125 nM

Q: For `O=C(Nc1ccc(F)cc1)c1ccc(SCCCCB(O)O)nc1` [Compound 10], which IC50 is on record?
A: 689 ± 230 nM

Q: Which IC50 does the source give for `O=C(Nc1ccc(F)cc1)c1ccc(SCc2ccccc2)nc1` [Compound 12] here?
A: 393 ± 160 nM

Q: How did the IC50 turn out when `CC(=O)Oc1ccccc1CSc1ccc(C(=O)Nc2ccc(F)cc2)cn1` [Compound 13a] was run?
A: > 5000 nM

Q: How did the IC50 turn out when `CC(=O)Oc1ccc(OC(F)(F)F)cc1CSc1ccc(C(=O)Nc2ccc(F)cc2)cn1` [Compound 14a] was run?
A: 1060 ± 270 nM

Q: For `CC1(C)OB(c2ccccc2CCSc2ccc(C(=O)Nc3ccc(F)cc3)cn2)OC1(C)C` [Compound 15], which IC50 is on record?
A: 611 nM

Q: Which IC50 does the source give for `CC1(C)OB(c2ccccc2CSc2ccc(C(=O)Nc3ccc(F)cc3)cn2)OC1(C)C` [Compound 16] here?
A: 275 ± 103 nM

Q: With `CC1(C)C2CC3OB(c4ccccc4CSc4ccc(C(=O)Nc5ccc(F)cc5)cn4)OC3(C)C1C2` (centres unmarked) [Compound 17] as the molecule, how does the IC50 read?
A: 59 ± 29 nM

Q: With `CC1(C)OB(c2ccc(F)cc2CSc2ccc(C(=O)Nc3ccc(F)cc3)cn2)OC1(C)C` [Compound 18] as the molecule, how does the IC50 read?
A: 1230 ± 120 nM

Q: `CC1(C)OB(c2ccc(OC(F)(F)F)cc2CSc2ccc(C(=O)Nc3ccc(F)cc3)cn2)OC1(C)C` [Compound 19, 6-(2-boronic pinacol ester-5-trifluoromethoxy-benzylsulfanyl)-N-(4-fluoro-phenyl)-nicotinamide] was tested. Which IC50 did it give?
A: 72 ± 7 nM

Q: How did the IC50 turn out when `CC1(C)OB(c2ccc(CSc3ccc(C(=O)Nc4ccc(F)cc4)cn3)cc2)OC1(C)C` [Compound 20] was run?
A: 112 ± 67 nM

Q: `COC(=O)c1ccccc1CSc1ccc(C(=O)Nc2ccc(F)cc2)cn1` [Compound 21] was tested. Which IC50 did it give?
A: 759 ± 190 nM

Q: With `COC(=O)c1cccc(CSc2ccc(C(=O)Nc3ccc(F)cc3)cn2)c1` [Compound 22] as the molecule, how does the IC50 read?
A: > 5000 nM

Q: `COC(=O)c1ccc(CSc2ccc(C(=O)Nc3ccc(F)cc3)cn2)cc1` [Compound 23] was tested. Which IC50 did it give?
A: > 10000 nM

Q: `O=C(Nc1ccc(F)cc1)c1ccc(SCc2ccccc2C(=O)O)nc1` [Compound 24] was tested. Which IC50 did it give?
A: 1480 ± 490 nM

Q: `O=C(O)c1cccc(CSc2ccc(C(=O)Nc3ccc(F)cc3)cn2)c1` [Compound 25] was tested. Which IC50 did it give?
A: 2120 ± 740 nM

Q: For `O=C(Nc1ccc(F)cc1)c1ccc(SCc2ccccc2-c2nn[nH]n2)nc1` [Compound 26], which IC50 is on record?
A: 173 ± 46 nM

Q: For `O=C(Nc1ccc(F)cc1)c1ccc(SCc2ccc(Cl)c(Cl)c2)nc1` [Compound 27], which IC50 is on record?
A: 1610 nM

Q: For `Cc1cccc(CSc2ccc(C(=O)Nc3ccc(F)cc3)cn2)c1F` [Compound 28], which IC50 is on record?
A: > 10000 nM

Q: Which IC50 does the source give for `O=C(Nc1ccc(F)cc1)c1ccc(SCc2ccc(-c3ccsc3)cc2)nc1` [Compound 29] here?
A: > 10000 nM

Q: With `O=C(Nc1ccc(F)cc1)c1ccc(SCc2ccccc2-c2cccs2)nc1` [Compound 30] as the molecule, how does the IC50 read?
A: > 5000 nM

Q: For `O=C(Nc1ccc(F)cc1)c1ccc(SCc2ccc(-n3cccc3)cc2)nc1` [Compound 31], which IC50 is on record?
A: > 10000 nM

Q: Which IC50 does the source give for `O=C(Nc1ccc(F)cc1)c1ccc(SCc2ccc(-n3cccn3)cc2)nc1` [Compound 32] here?
A: > 10000 nM

Q: How did the IC50 turn out when `O=C(Nc1ccc(F)cc1)c1ccc(SCc2ccc(-n3cncn3)cc2)nc1` [Compound 33] was run?
A: > 10000 nM

Q: Which IC50 does the source give for `Cc1nc(-c2ccc(CSc3ccc(C(=O)Nc4ccc(F)cc4)cn3)cc2)no1` [Compound 34] here?
A: > 10000 nM

Q: How did the IC50 turn out when `Cc1nc(-c2cccc(CSc3ccc(C(=O)Nc4ccc(F)cc4)cn3)c2)no1` [Compound 35] was run?
A: > 10000 nM

Q: With `Cc1nc(-c2ccc(CSc3ccc(C(=O)Nc4ccc(F)cc4)cn3)cc2)cs1` [Compound 36] as the molecule, how does the IC50 read?
A: > 10000 nM
